Test results from US9724347B2, “1-pyrazolyl-3-(4-((2-anilinopyrimidin-4-yl)oxy)napththalen-1-yl) ureas as P38 MAP knase inhibitors” (Respivert Ltd., priority 2011, dated 2017).
pIC50: −log10 of the molar value.

What was measured:
A/J mice = experiment: Cigarette smoke model; type: in vivo; details: for CXCL1 in BALF, % inhibition / Cell numbers in BALF, Macrophage / Cell numbers in BALF, Macrophage, % inhibition / Cell numbers in BALF, Neutrophil / Cell numbers in BALF, Neutrophil, % inhibition: tobacco smoke
Description: A/J mice (males, 5 weeks old) were exposed to cigarette smoke (4% cigarette smoke, diluted with air) for 30 min/day for 11 days using a Tobacco Smoke Inhalation Experiment System for small animals (Model SIS-CS; Sibata Scientific Technology, Tokyo, Japan). Test substances were administered intra-nasally (35 μL of solution in 50% DMSO/PBS) once daily for 3 days after the final cigarette smoke exposure. At 12 hr after the last dosing, each of the animals was anesthetized, the trachea cannulated and bronchoalveolar lavage fluid (BALF) was collected. The numbers of alveolar macrophages and neutrophils were determined by FACS analysis (EPICS® ALTRA II, Beckman Coulter, Inc., Fullerton, Calif., USA) using anti-mouse MOMA2 antibody (macrophage) or anti-mouse 7/4 antibody (neutrophil). BALF was centrifuged and the supernatant was collected. The level of keratinocyte chemoattractant (KC; CXCL1) in BALF was quantitated using a Quentikine® mouse KC ELISA kit (R&D systems, Inc., Minneapolis, Minn., USA).

Balb/c mice = experiment: LPS-induced neutrophil accumulation in mice; type: in vivo
Description: […] At T=0, mice were placed into an exposure chamber and exposed to LPS (7.0 mL, 0.5 mg/mL solution in PBS) for 30 min). After a further 8 hr the animals were anesthetized, their tracheas cannulated and BALF extracted by infusing and then withdrawing from their lungs 1.0 mL of PBS via the tracheal catheter. Total and differential white cell counts in the BALF samples were measured using a Neubaur haemocytometer. Cytospin smears of the BALF samples were prepared by centrifugation at 200 rpm for 5 min at RT and stained using a DiffQuik stain system (Dade Behring). Cells were counted using oil immersion microscopy. Data for neutrophil numbers in BAL are shown as mean±S.E.M. (standard error of the mean). The percentage inhibition of neutrophil accumulation was calculated for each treatment relative to vehicle treatment.

GSK3α = GSK3α (Homo sapiens (Human), UniProt P49840); experiment: Kinase binding, active site-directed competition binding (DiscoverX)
Sequence of GSK3α (P49840 whole entry): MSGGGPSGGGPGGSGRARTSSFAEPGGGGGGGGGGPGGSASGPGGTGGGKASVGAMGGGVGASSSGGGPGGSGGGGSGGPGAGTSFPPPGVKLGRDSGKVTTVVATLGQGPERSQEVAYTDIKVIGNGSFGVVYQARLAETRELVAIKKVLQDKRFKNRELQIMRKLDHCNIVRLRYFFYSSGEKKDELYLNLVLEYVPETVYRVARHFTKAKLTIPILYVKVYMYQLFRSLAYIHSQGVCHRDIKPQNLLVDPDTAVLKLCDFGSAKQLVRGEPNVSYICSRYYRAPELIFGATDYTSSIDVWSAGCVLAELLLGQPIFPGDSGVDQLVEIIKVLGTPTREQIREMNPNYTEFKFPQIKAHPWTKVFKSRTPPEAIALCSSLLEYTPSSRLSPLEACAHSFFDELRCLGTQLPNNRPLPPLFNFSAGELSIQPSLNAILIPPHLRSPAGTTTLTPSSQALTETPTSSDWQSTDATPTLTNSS

PBMC cells = experiment: Cell mitosis assay; type: cell-based, human
Description: Peripheral blood mononucleocytes (PBMCs) from healthy subjects were separated from whole blood (Quintiles, London, UK) using a density gradient (Histopaque®-1077, Sigma-Aldrich, Poole, UK). The PBMCs (3 million cells per sample) were subsequently treated with 2% PHA (Sigma-Aldrich, Poole, UK) for 48 hr, followed by a 20 hr exposure to varying concentrations of test compounds. At 2 hr before collection, PBMCs were treated with demecolcine (0.1 μg/mL; Invitrogen, Paisley, UK,) to arrest cells in metaphase. To observe mitotic cells, PBMCs were permeabilised and fixed by adding Intraprep (50 μL; Beckman Coulter, France), and stained with anti-phospho-histone 3 ([…]; #9701; Cell Signalling, Danvers, Mass.) and propidium iodide (1 mg/mL; Sigma-Aldrich, Poole, UK,) as previously described (Muehlbauer P. A. and Schuler M. J., Mutation Research, 2003, 537:117-130). Fluorescence was observed using an ATTUNE flow cytometer (Invitrogen, Paisley, UK), gating for lymphocytes.

d-U937 cells = experiment: Cell viability: MTT assay; type: cell-based, human; details: 1 μg/mL
How it was run: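 Differentiated U937 cells exposed to compound at 1 or 10 μg/mL final, either 4 h in 5% FCS RPMI1640 or 24 h in 10% FCS RPMI1640. After medium replacement, MTT added 1 h, formazan dissolved in DMSO, A550 read. % viability loss vs 0.5% DMSO vehicle; apparent viability gain shown as negative %.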

[1] = tested on: ICAM-1 expression in BEAS2B cells; experiment: Poly I:C-induced ICAM-1 expression in BEAS2B cells; type: cell-based, human; details: Homo sapiens, BEAS-2B, read-out: PolyIC/ICAM1 IC50 (BEAS2B)
How it was run: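 BEAS2B human bronchial epithelial cells pre-incubated 2 h with compound, then transfected with 1 μg/mL poly I:C plus Oligofectamine. After 18 h, surface ICAM-1 measured by cell-based ELISA (OD450–655), normalised to crystal violet cell count (OD595). Inhibition calculated against vehicle control.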

[2] = target: p38 MAPKα isoform (MAPK14) (Homo sapiens (Human), UniProt Q16539); experiment: p38 MAPKα enzyme inhibition (FRET, Z-LYTE); type: biochemical
Sequence of p38 MAPKα isoform (MAPK14) (Q16539 whole entry, canonical isoform): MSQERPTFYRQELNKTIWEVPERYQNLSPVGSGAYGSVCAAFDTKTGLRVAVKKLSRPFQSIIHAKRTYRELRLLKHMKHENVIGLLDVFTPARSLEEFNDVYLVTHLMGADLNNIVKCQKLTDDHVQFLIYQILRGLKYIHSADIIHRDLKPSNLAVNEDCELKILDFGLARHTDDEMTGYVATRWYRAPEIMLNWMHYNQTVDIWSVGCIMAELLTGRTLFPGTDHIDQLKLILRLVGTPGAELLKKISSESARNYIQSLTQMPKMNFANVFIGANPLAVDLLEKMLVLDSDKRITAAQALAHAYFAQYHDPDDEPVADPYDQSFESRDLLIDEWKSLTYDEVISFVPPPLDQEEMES

p38MAPKγ (MAPK12) = p38MAPKγ (MAPK12) (Homo sapiens (Human), UniProt P53778); experiment: p38 MAPKγ enzyme inhibition (FRET, Z-LYTE); type: biochemical
Sequence of p38MAPKγ (MAPK12) (P53778 whole entry): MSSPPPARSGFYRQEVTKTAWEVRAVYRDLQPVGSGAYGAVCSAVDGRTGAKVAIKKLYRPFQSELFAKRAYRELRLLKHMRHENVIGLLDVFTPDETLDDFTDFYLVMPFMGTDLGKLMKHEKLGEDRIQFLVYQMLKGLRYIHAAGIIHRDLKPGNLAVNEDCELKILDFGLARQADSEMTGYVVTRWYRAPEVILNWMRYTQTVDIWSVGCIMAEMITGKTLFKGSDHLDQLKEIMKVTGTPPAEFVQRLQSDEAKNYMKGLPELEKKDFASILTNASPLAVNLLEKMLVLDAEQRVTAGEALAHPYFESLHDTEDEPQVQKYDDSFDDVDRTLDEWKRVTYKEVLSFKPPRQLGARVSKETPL
How it was run: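 Z-LYTE FRET kinase format on donor/acceptor-labeled synthetic peptide; protease development 1 hr cleaves only non-phosphorylated peptide. Phosphorylation derived from coumarin/fluorescein emission ratio, low ratio indicating high phosphorylation.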

GSK 3α enzyme isoform = GSK 3α enzyme isoform (Homo sapiens (Human), UniProt P49840); experiment: GSK 3α enzyme inhibition (FRET, Z-LYTE); type: biochemical; details: read-out: IC50 Values for Enzyme Inhibition GSK3α
Sequence of GSK 3α enzyme isoform (P49840 whole entry, canonical isoform): as the sequence (P49840 whole entry) above
How it was run: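 Human GSK3α (500 ng/mL stock) was preincubated 2 h at RT with compound (stocks 4, 0.4, 0.04 or 0.004 μg/mL), then given FRET peptide (8 μM stock) and ATP (40 μM stock) for 1 h. After 1 h protease development, the coumarin/fluorescein emission ratio gave phosphorylation level.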

[3] = tested on: HRV IL-8 release (BEAS2B); experiment: Rhinovirus-induced IL-8 release in BEAS2B cells; type: cell-based, human; details: at 0.04 μg/mL
Description: Human rhinovirus RV16 was obtained from the American Type Culture Collection (Manassas, Va.). Viral stocks were generated by infecting Hela cells with HRV until 80% of the cells were cytopathic.
BEAS2B cells were infected with HRV at an MOI of 5 and incubated for 2 hr at 33° C. with gentle shaking for to promote absorption. The cells were then washed with PBS, fresh media added and the cells were incubated for a further 72 hr. The supernatant was collected for assay of IL-8 concentrations using a Duoset ELISA development kit (R&D systems, Minneapolis, Minn.).
The level of cell surface ICAM-1 expression was determined by cell-based ELISA. At 72 hr after infection, cells were fixed with 4% formaldehyde in PBS. After quenching endogenous peroxidase by adding 0.1% sodium azide and 1% hydrogen peroxide, wells were washed with wash-buffer (0.05% Tween in PBS: PBS-Tween). […] The ICAM-1 signal was detected by adding substrate and reading at 450 nm with a reference wavelength of 655 nm using a spectrophotometer. The wells were then washed with PBS-Tween and total cell numbers in each well were determined by reading absorbance at 595 nm after Crystal Violet staining and elution by 1% SDS solution. The measured OD450-655 readings were corrected for cell number by dividing with the OD595 reading in each well. […]

HRV16 = HRV16 induced CPE in MRC5 cells; type: cell-based, human rhinovirus; details: at 0.04 μg/mL
Description: The supernatants were aspirated, and then fresh media added followed by incubation for 4 days. Where appropriate, cells were pre-incubated with compound or DMSO for 2 hr, and the compounds and DMSO added again after washout of the virus.
The percentage inhibition for each well was calculated. The IC50 value was calculated from the concentration-response curve generated by the serial dilutions of the test compounds.

Cc1ccc(-n2nc(C(C)(C)C)cc2NC(=O)Nc2ccc(Oc3ccnc(Nc4ccccc4)n3)c3ccccc23)cc1 [Example 1, 1-(3-(tert-Butyl)-1-(p-tolyl)-1H-pyrazol-5-yl)-3-(4-(2-(phenylamino)pyrimidin-4-yloxy)naphthalen-1-yl)urea]
CXCL1 in BALF, % inhibition (A/J mice; 0.32 μg/mL intra-nasal): 0% | Cell numbers in BALF, Macrophage (A/J mice; 0.32 μg/mL intra-nasal): 13.3 ± 0.20 ×10^4/mL | Cell numbers in BALF, Macrophage, % inhibition (A/J mice; 0.32 μg/mL intra-nasal): 11% | Cell numbers in BALF, Neutrophil (A/J mice; 0.32 μg/mL intra-nasal): 12.4 ± 0.32 ×10^4/mL | Cell numbers in BALF, Neutrophil, % inhibition (A/J mice; 0.32 μg/mL intra-nasal): 12% | CXCL1 in BALF, % inhibition (A/J mice; 1.6 μg/mL intra-nasal): 26% | Cell numbers in BALF, Macrophage (A/J mice; 1.6 μg/mL intra-nasal): 11.6 ± 0.42 ×10^4/mL | Cell numbers in BALF, Macrophage, % inhibition (A/J mice; 1.6 μg/mL intra-nasal): 28% | Cell numbers in BALF, Neutrophil (A/J mice; 1.6 μg/mL intra-nasal): 10.5 ± 0.06 ×10^4/mL | Cell numbers in BALF, Neutrophil, % inhibition (A/J mice; 1.6 μg/mL intra-nasal): 29% | CXCL1 in BALF, % inhibition (A/J mice; 8.0 μg/mL intra-nasal): 41% | Cell numbers in BALF, Macrophage (A/J mice; 8.0 μg/mL intra-nasal): 10.1 ± 0.42 ×10^4/mL | Cell numbers in BALF, Macrophage, % inhibition (A/J mice; 8.0 μg/mL intra-nasal): 43% | Cell numbers in BALF, Neutrophil (A/J mice; 8.0 μg/mL intra-nasal): 9.1 ± 0.28 ×10^4/mL | Cell numbers in BALF, Neutrophil, % inhibition (A/J mice; 8.0 μg/mL intra-nasal): 41% | CXCL1 in BALF, % inhibition (A/J mice; 40 μg/mL intra-nasal): 76% | Cell numbers in BALF, Macrophage (A/J mice; 40 μg/mL intra-nasal): 7.9 ± 0.20 ×10^4/mL | Cell numbers in BALF, Macrophage, % inhibition (A/J mice; 40 μg/mL intra-nasal): 64% | Cell numbers in BALF, Neutrophil (A/J mice; 40 μg/mL intra-nasal): 7.9 ± 0.34 ×10^4/mL | Cell numbers in BALF, Neutrophil, % inhibition (A/J mice; 40 μg/mL intra-nasal): 52% | cigarette smoke induced CXCL1 (KC) production in BALF (in words) (A/J mice; mice): inhibited | macrophage accumulation in BALF induced by cigarette smoke (in words) (A/J mice; mice): dose-dependent inhibition | neutrophil accumulation in BALF induced by cigarette smoke (in words) (A/J mice; mice): dose-dependent inhibition | Neutrophil numbers in BALF, % inhibition (Balb/c mice; 0.05 mg/mL intra tracheal, pre-dose time 2 hr): 18% | Neutrophil numbers in BALF, % inhibition (Balb/c mice; 0.2 mg/mL intra tracheal, pre-dose time 2 hr): 48% | Neutrophil numbers in BALF, % inhibition (Balb/c mice; 1.0 mg/mL intra tracheal, pre-dose time 2 hr): 77% | Neutrophil numbers in BALF, % inhibition (Balb/c mice; 1.0 mg/mL intra tracheal, pre-dose time 8 hr): 48% | Neutrophil numbers in BALF, % inhibition (Balb/c mice; 1.0 mg/mL intra tracheal, pre-dose time 12 hr): 4% | effect on LPS-induced neutrophil accumulation (in words) (Balb/c mice; mice): dose dependent inhibition | duration of action (Balb/c mice; time course experiment, mice): long duration of action | inhibition of binding against GSK3α (in words) (GSK3α): without significant effect | Mitosis Assay % inhibition in PBMC Cells (PBMC cells; 1 μg/mL): 13.7% | Mitosis Assay % inhibition in PBMC Cells (PBMC cells; 5 μg/mL): 31.3% | MTT Assay Cell viability at time point in d-U937 Cells (d-U937 cells; 4 h): −ve (−ve and +ve indicate the value is below and above respectively, the no significant effect threshold defined as 30% inhibition at 1 μg/mL at the time point indicated) | MTT Assay Cell viability at time point in d-U937 Cells (d-U937 cells; 24 h): −ve (−ve and +ve indicate the value is below and above respectively, the no significant effect threshold defined as 30% inhibition at 1 μg/mL at the time point indicated)

Cc1ccc(-n2nc(C(C)(C)C)cc2NC(=O)Nc2ccc(Oc3ccnc(Nc4ccccc4Cl)n3)c3ccccc23)cc1 [Example 6, 1-(3-(tert-butyl)-1-(p-tolyl)-1H-pyrazol-5-yl)-3-(4-((2-((2-chlorophenyl)amino)pyrimidin-4-yl)oxy)naphthalen-1-yl)urea]
pIC50 [1]: 7.25 | pIC50 [2]: 6.79 | pIC50 (p38MAPKγ (MAPK12)): < 4.79 | pIC50 (GSK 3α enzyme isoform): < 4.79 | HRV IL-8 (BEAS2B) % inhibition [3]: 77% | MTT Assay Cell viability at time point in d-U937 Cells (d-U937 cells; 4 h): −ve (−ve and +ve indicate the value is below and above respectively, the no significant effect threshold defined as 30% inhibition at 1 μg/mL at the time point indicated) | MTT Assay Cell viability at time point in d-U937 Cells (d-U937 cells; 24 h): −ve (−ve and +ve indicate the value is below and above respectively, the no significant effect threshold defined as 30% inhibition at 1 μg/mL at the time point indicated) | HRV CPE (MRC5) % inhibition (HRV16): 46%
